Assay results reported in patent US8647644B1, “Methods of using capped mesoporous silicates” (Iowa State University Research Foundation, Inc., priority 2006, dated 2014).
Counter-ions that a name gives are not always drawn.

Experiments:
[1] = DTT-induced drug/neurotransmitter release study (HPLC); type: physicochemical; conditions: for release within 24 hours as share of total release seen in 3 days: from CdS-capped MSN after 18.5 mM DTT; for amount released after 3 days of DTT-induced uncapping / encapsulated molecule released after 3 days of DTT-induced uncapping: from CdS-capped MSN, PBS pH 7.4
Procedure: CdS-capped MSN with vancomycin or ATP (10.00 mg) material was dispersed in 1.50 mL of PBS buffer (pH 7.4), followed by repeating wash/sonication/centrifugation cycles for five times to remove physisorbed, uncapped vancomycin or ATP molecules on the exterior surface of the material. The purified MSN/drug composite was redispersed in 3.50 mL of PBS buffer (pH 7.4). Aliquots were taken every 4 hours over a time period of 12 hours from the MSN/water suspension and injected to an analytical HPLC system (Hitachi LC/3DQMS with a reverse phase C18 column (Vydac), 0.4 cm×25 cm) to monitor the leaching of the mesoporous channel encapsulated vancomycin or ATP molecules. After 12 hours, dithiothreitol (DTT, 18.50 mM) was added to the suspension to cleave the disulfide linkage between the CdS nanoparticle and the MSN. The kinetic profiles of the DTT-induced release of vancomycin and ATP were monitored by following two literature-reported HPLC separation conditions. The peaks/areas at 280 and 258 nm were monitored/integrated for the quantitative analysis of amounts of released vancomycin and ATP, respectively. See Farin et al., J. Pharm. Biomed. Anal. 1998, 18:367; and Veciana-Nogues et al., Food Chem. 1997, 59:467.

[2] = Loading of vancomycin and ATP into linker-MSN with CdS capping, HPLC of filtrate; type: physicochemical; conditions: for loading efficiency: CdS-capped linker-MSN; for amount of mesopore-encapsulated molecule: per 100.0 mg of linker-MSN material, from concentration decrease in filtrate
Procedure: Purified linker-MSN material from sub-part (b) below (100.00 mg) was incubated in a PBS buffer solution (0.60 mL, pH 7.4) of ATP or vancomycin (3.00 μmol in both cases) for 24 hours. Mercaptoacetic acid-functionalized CdS nanoparticles from sub-part (c) below (0.15 mmol) were dissolved in 2.00 mL of PBS buffer with vancomycin or ATP (0.01 mmol in both cases); 1-[3-(dimethylamino)propyl]-3-ethylcarbodiimide hydrochloride (EDC) (57.50 mg, 0.30 mmol) was added to the CdS/drug solution. The reaction mixture was allowed to stir for 24 hours, followed by centrifuging the suspension at 12,000 rpm for 3 minutes. The resulting precipitates (ATP- or vancomycin-loaded, CdS-capped MSNs) were isolated and dried under vacuum.
The water-soluble CdS nanocrystals (average particle diameter of 2.0 nm) with mercaptoacetic acid groups were covalently captured and formed amide bonds by reacting with the mesopore surface-bound 2-(propyldisulfanyl)ethylamine linkers of the MSN/drug composite material in aqueous solutions. The resulting reaction suspensions were centrifuged, and the CdS-capped MSN/drug composite materials along with the unreacted CdS nanoparticles were filtered. The concentrations of the free vancomycin and ATP molecules in the filtrate were then determined by HPLC. The calculated concentration decreases of solution vancomycin and ATP were attributed to the amounts of mesopore-encapsulated vancomycin (2.5 μmol) and ATP (4.7 μmol) per 100.0 mg of linker-MSN material. These numbers correspond to ca. 83.9 and 30.3 mol % loading efficiency, respectively.

type-1 astrocytes = assay: Intracellular calcium imaging (Fura-2) of astrocyte cultures; conditions: no MSNs
Procedure: After incubation, tissue was rinsed with EBSS solution and incubated for 5 minutes in trypsin-inhibitor solution (1 mg/mL; Gibco-Invitrogen Co.). After being rinsed, once with EBSS solution and once with culture medium (consisting of α-minimum essential medium (α-MEM; Gibco-Invitrogen Co.) supplemented with 10% heat-inactivated fetal bovine serum (FBS; Gibco-Invitrogen Co.) and 1.00 mL of penicillin-streptomycin solution (Sigma-Aldrich Co.) per 100 mL), the tissue was mechanically dispersed in culture medium by triturating through a fire-polished glass pipet. The cell suspension was transferred to sterile 15-mL centrifuge tubes and spun at 1000 g for 10 minutes. Cell pellets were resuspended in culture medium (α-MEM supplemented with 10% heat-inactivated FBS and 1.00 mL of penicillin-streptomycin solution per 100.00 mL) and plated in culture flasks. […] Culture medium was changed every 2 to 3 days. When mixed cultures reached confluence (9-12 days), the flasks were shaken (260 rpm) for 90 minutes to remove microglia and dividing type I astroglia. After shaking the cells, medium was replaced, and the flasks were incubated for 1 hour to equilibrate with CO2 in the fresh medium. […]
The effect of experimental manipulation on the intracellular calcium concentration ([Ca^2+]i) of cultured cells was evaluated by ratiometric imaging techniques. […]

[3] = test system: tobacco mesophyll protoplasts; assay: Endocytosis experiments with tobacco mesophyll protoplasts (Example 11); type: cell-based, Nicotiana tabacum; conditions: 1 mM LYCH, overnight in W5
Procedure: Tobacco protoplasts were mixed with MSN in W5 media (Spangenberg et al., supra) using 10^6 cells for 10 μg of MSN. The mix was incubated overnight in 3 mL of W5 in BD Falcon 6-well flat-bottom plates. To remove non-engulfed MSN (except for FIG. 20A), the mixture were overlaid on K4 medium (Spangenberg et al., supra) and centrifuge at 100×g for 10 minutes at room temperature. The protoplasts at the interphase were collected and evaluated. Isolated live cells experiments images were taken using a 63× oil objective with a Leica TCS/NT laser scanning confocal microscope equipped with Argon 488 nm and Krypton 568 nm lasers plus a double dichroic DD488/568 filter. To detect fluorescence in the green channel, a combination of RSP580 and BP525/25 filters was used under wavelength between 500 and 550 nm. For the red channel, wavelength above 590 nm was selected using a LP590 filter. During scanning, pinhole was maintained at 1 for all images. Images were acquired using TCS software and analyzed using ImageJ (Abramoff et al., Biophotonics Int'l 2004, 11:36). Whole tissue images were taken under either bright field or GFP band pass exciter 460-490 nm with emission filter 510-550 nm using an Olympus SHZ10 stereoscope coupled to a SPOT RT color CCD camera (Diagnostic Instrument Inc.). Images were acquired with SPOT software.

protoplasts = conditions: 1-2 mg of DNA per 10^6 cells; cited from earlier work

## Nc1ncnc2c1ncn2[C@@H]1O[C@H](COP(=O)([O-])OP(=O)([O-])OP(=O)(O)O)[C@@H](O)[C@H]1O.[Na+].[Na+] [ATP, adenosine triphosphate disodium salt]
[1]
  release within 24 hours as share of total release seen in 3 days: 85%
  amount released after 3 days of DTT-induced uncapping: 1.3 µmol
  encapsulated molecule released after 3 days of DTT-induced uncapping: 28.2%
[2]
  loading efficiency: ~30.3 mol %
  amount of mesopore-encapsulated molecule: 4.7 µmol
type-1 astrocytes; 100.0 μM, ME-treated astrocytes
  change of intracellular [Ca2+]i: obvious increases in [Ca^2+]i

## OCCS [ME]
type-1 astrocytes; perfusion 1.0 mM for 5 minutes
  change of intracellular [Ca2+]i: no increase in [Ca^2+]i

## Lucifer Yellow CH, lithium salts
[3]
  protoplasts that underwent endocytosis: 26±7%

## polyethylene glycol [polyethylene glycol (PEG)]
protoplasts
  transient transformation efficiency: 40-90%

## CN[C@H](CC(C)C)C(=O)N[C@H]1C(=O)N[C@@H](CC(N)=O)C(=O)N[C@H]2C(=O)N[C@H]3C(=O)N[C@H](C(=O)N[C@H](C(=O)O)c4cc(O)cc(O)c4-c4cc3ccc4O)[C@H](O)c3ccc(c(Cl)c3)Oc3cc2cc(c3O[C@@H]2O[C@H](CO)[C@@H](O)[C@H](O)[C@H]2O[C@H]2C[C@](C)(N)[C@H](O)[C@H](C)O2)Oc2ccc(cc2Cl)[C@H]1O [vancomycin, Vancomycin hydrochloride]
[1]
  release within 24 hours as share of total release seen in 3 days: 85%
  amount released after 3 days of DTT-induced uncapping: 1.6 µmol
  encapsulated molecule released after 3 days of DTT-induced uncapping: 53.8%
[2]
  loading efficiency: ca. 83.9 mol %
  amount of mesopore-encapsulated molecule: 2.5 µmol
